Source: patent publication US20180282347A1, “BICYCLIC COMPOUNDS AS PEST CONTROL AGENTS” (BAYER CROPSCIENCE AKTIENGESELLSCHAFT, priority 2014, published 2018)
Read-outs that look alike come from different tables or passages of the source.

Experiments:
[1] = log P by HPLC on reversed-phase (C18) columns, OECD Guideline 117; type: physicochemical; conditions: reversed-phase (C18) HPLC column
Method: Calibration is carried out using unbranched alkan-2-ones (having 3 to 16 carbon atoms) with known log P values (log P values determined on the basis of the retention times by linear interpolation between two successive alkanones).

Myzus persicae = Myzus persicae - spray test; type: in vivo; conditions: foliar, 144 h, application rate 500 g/ha, sprayed Chinese cabbage leaf discs (Brassica pekinensis) infested by all stages, after 6 days, read-out: efficacy in % (100% = all aphids killed)
Method: Myzus persicae—Spray Test
Solvent: 78 parts by weight of acetone • • 1.5 parts by weight of dimethylformamide
Emulsifier: alkylaryl polyglycol ether
To produce further test concentrations, the formulation is diluted with emulsifier-containing water.
After 6 days, the efficacy in % is determined. 100% means that all the aphids have been killed; 0% means that no aphids have been killed.

[2] = acidic range, pH 2.7, 0.1% aqueous formic acid and acetonitrile as eluents, read-out: logP [a]
[3] = neutral range, pH 7.8, 0.001 molar aqueous ammonium hydrogencarbonate solution and acetonitrile as eluents, read-out: logP [b]

For `O=C(Nc1cc2sc(-c3cccnc3)nc2cn1)c1cccc([S+]([O-])C(F)(F)F)c1` (stereo not shown) [Example 28], which chromatographic logP [1, 2] is on record?
Its chromatographic logP is 2.61.

With `CS(=O)(=O)CCC(=O)Nc1cc2sc(-c3cccnc3)nc2cn1` [Example 29] as the molecule, how does the chromatographic logP [1, 2] read?
The chromatographic logP was 1.17.

With `Cc1cc(F)c(-c2cc3sc(-c4cccnc4)nc3cn2)cc1SCC(F)(F)F` [Example 1, 6-[2-Fluoro-4-methyl-5-(2,2,2-trifluoroethylsulphanyl)phenyl]-2-(3-pyridyl)thiazolo [4,5-c]pyridine] as the molecule, how does the pest or weed control at 500 g/ha (Myzus persicae) read?
Its pest or weed control at 500 g/ha is 90%.

What about the chromatographic logP [1, 2] of the same molecule?
Its chromatographic logP is 4.45.

And the chromatographic logP [1, 3]?
The chromatographic logP was 4.41.

What does the source list for `CN(C(=O)c1cccc(S(=O)(=O)C(F)(F)F)c1)c1cc2sc(-c3cccnc3)nc2cn1` [Example 18]?
pest or weed control at 500 g/ha (Myzus persicae): 100%; chromatographic logP [1, 2]: 1.54

For `CCN(C)C(=O)c1cc2sc(-c3cccnc3)nc2cn1` [Example 21], which pest or weed control at 500 g/ha (Myzus persicae) is on record?
Its pest or weed control at 500 g/ha is 90%.

What about the chromatographic logP [1, 2] of the same molecule?
The chromatographic logP was 1.52.

Which chromatographic logP [1, 2] does the source give for `CS(=O)(=O)CCNC(=O)c1cc2sc(-c3cccnc3)nc2cn1` [Example 30] here?
Its chromatographic logP is 1.23.

Which chromatographic logP [1, 2] does the source give for `CNC(=O)c1cc2sc(-c3cccnc3)nc2cn1` [Example 20] here?
Its chromatographic logP is 1.35.

For `CN(C(=O)CCS(C)(=O)=O)c1cc2sc(-c3cccnc3)nc2cn1` [Example 17, N-Methyl-3-(methylsulphonyl)-N-[2-(pyridin-3-yl) [1,3]thiazolo[4,5-c]pyridin-6-yl]propanamide], which pest or weed control at 500 g/ha (Myzus persicae) is on record?
The pest or weed control at 500 g/ha was 90%.

What about the chromatographic logP [1, 2] of the same molecule?
Its chromatographic logP is 1.25.

Which chromatographic logP [1, 2] does the source give for `O=C(Nc1cccc(SC(F)(F)F)c1)c1cc2sc(-c3cccnc3)nc2cn1` [Example 11] here?
Its chromatographic logP is 4.33.

For `CN(C(=O)C1CCS(=O)(=O)C1)c1cc2sc(-c3cccnc3)nc2cn1` (stereo not shown) [Example 10], which pest or weed control at 500 g/ha (Myzus persicae) is on record?
Its pest or weed control at 500 g/ha is 90%.

What about the chromatographic logP [1, 2] of the same molecule?
The chromatographic logP was 1.37.

Which results are given for `c1cncc(-c2nc3cnc(N4CCCC4)cc3s2)c1` [Example 27, 2-(Pyridin-3-yl)-6-(pyrrolidin-1-yl)[1,3]thiazolo[4,5-c]pyridine]?
chromatographic logP [1, 2]: 1.38; chromatographic logP [1, 3]: 2.61

Which chromatographic logP [1, 2] does the source give for `Clc1cc2sc(-c3cccnc3)nc2cn1` [Example 24, 6-Chloro-2-(3-pyridyl)thiazolo[4,5-c]pyridine] here?
Its chromatographic logP is 1.89.

Which results are given for `c1cncc(-c2nc3cnc(N4CCOCC4)cc3s2)c1` [Example 4, 4-[2-(3-Pyridyl)thiazolo[4,5-c]pyridin-6-yl]morpholine]?
pest or weed control at 500 g/ha (Myzus persicae): 90%; chromatographic logP [1, 2]: 1.73; chromatographic logP [1, 3]: 1.94

Which chromatographic logP [1, 2] does the source give for `FC(F)(F)c1cc2sc(-c3cccnc3)nc2cn1` [Example 3, 2-(3-Pyridyl)-6-(trifluoromethyl)thiazolo[4,5-c]pyridine] here?
Its chromatographic logP is 2.32.

What about the chromatographic logP [1, 3] of the same molecule?
Its chromatographic logP is 2.32.

Which chromatographic logP [1, 2] does the source give for `O=C(Nc1cccc(S(=O)(=O)C(F)(F)F)c1)c1cc2sc(-c3cccnc3)nc2cn1` [Example 19] here?
The chromatographic logP was 2.09.

Which chromatographic logP [1, 2] does the source give for `FC(F)(F)c1ccn(-c2cc3sc(-c4cccnc4)nc3cn2)n1` [Example 26, 2-(Pyridin-3-yl)-6-[3-(trifluoromethyl)-1H-pyrazol-1-yl][1,3]thiazolo[4,5-c]pyridine] here?
The chromatographic logP was 3.66.

What about the chromatographic logP [1, 3] of the same molecule?
Its chromatographic logP is 3.68.

For `Cc1ccc(-c2cc3sc(-c4cccnc4)nc3cn2)cc1SCC(F)(F)F` [Example 25], which chromatographic logP [1, 2] is on record?
The chromatographic logP was 4.32.

What about the chromatographic logP [1, 3] of the same molecule?
Its chromatographic logP is 4.21.

For `CN(C(=O)c1cccc([S+]([O-])C(F)(F)F)c1)c1cc2sc(-c3cccnc3)nc2cn1` (stereo not shown) [Example 22], which pest or weed control at 500 g/ha (Myzus persicae) is on record?
Its pest or weed control at 500 g/ha is 90%.

And the chromatographic logP [1, 2]?
The chromatographic logP was 2.21.

What does the source list for `Cc1cc(F)c(-c2cc3sc(-c4cccnc4)nc3cn2)cc1[S+]([O-])CC(F)(F)F` (stereo not shown) [Example 2, 6-[2-Fluoro-4-methyl-5-(2,2,2-trifluoroethylsulphinyl)phenyl]-2-(3-pyridyl)thiazolo [4,5-c]pyridine]?
chromatographic logP [1, 2]: 2.8; chromatographic logP [1, 3]: 2.77

What does the source list for `CN(C(=O)c1cccc(SC(F)(F)F)c1)c1cc2sc(-c3cccnc3)nc2cn1` [Example 7]?
pest or weed control at 500 g/ha (Myzus persicae): 90%; chromatographic logP [1, 2]: 3.3

What does the source list for `c1ccc(-c2cc3sc(-c4cccnc4)nc3cn2)nc1` [Example 6, 6-(2-Pyridyl)-2-(3-pyridyl)thiazolo[4,5-c]pyridine]?
chromatographic logP [1, 2]: 1.68; chromatographic logP [1, 3]: 2.38

With `Cc1ccc(-c2cc3sc(-c4cccnc4)nc3cn2)cc1[S+]([O-])CC(F)(F)F` (stereo not shown) [Example 5] as the molecule, how does the chromatographic logP [1, 2] read?
Its chromatographic logP is 2.79.

And the chromatographic logP [1, 3]?
The chromatographic logP was 2.74.

With `O=C(Nc1cccc([S+]([O-])C(F)(F)F)c1)c1cc2sc(-c3cccnc3)nc2cn1` (stereo not shown) [Example 14] as the molecule, how does the chromatographic logP [1, 2] read?
The chromatographic logP was 2.99.
